The subject of the experiment is COX-2. As to the kind of experiment: COX-2 promoter reporter gene (luciferase) assay, COX-2 induced with TPA, cells transfected with TRPV1 of human. Format: cell-based. Particulars: Maillard peptides 0.1% and 0.2%. The protocol:
In order to measure COX-2 activity inhibition effect of Maillard peptides of the present invention, the following experiment was performed.
[…] cells were cultivated in the growth medium (DMEM, 10% calf serum, 100 units/ml penicillin, 100 μg/ml streptomycin) at 37° C., atmosphere: air 95% (v/v), carbon dioxide, 5% to generate cells growing exponentially; the medium was removed, washed with PBS, and treated with trypsin to separate the cultivated cells; and the separated cells were placed in the medium containing serum to inactivate trypsin. Centrifugal filtration was performed at 200/g for 2 min to obtain cell pellets. […] The transformed plasmid cells were washed with PBS, and dissolution buffer (125 mM Tris pH 7.8, 10 mM CDTA, 10 mM DTT, 50% glycerol, 5% triton X-100) was added to destroy the cells and obtain supernatant liquid, and the amount (concentration) of protein was quantified with Bradford assay. Luciferase activity was measured by adding 100 μl of buffer(20 mM trysin, 1.07 mM (MgCO3)4Mg(OH)2H20, 2.67 mM MgSO4, 0.1 mM EDTA, 33.3 mM DTT, 270 μM coenzyme A(Lithium salt), 470 μM luciferin, 530 μM ATP) and measuring light emission with Luminometer (LUMAT LB 9501/16) for 20 min. […]

Structures are written as SMILES.

Regarding `C=C(C)[C@]12C[C@@H](C)[C@@]34O[C@](Cc5ccccc5)(O[C@@H]1[C@@H]3C=C(COC(=O)Cc1ccc(O)c(OC)c1)C[C@]1(O)C(=O)C(C)=C[C@@H]41)O2` [resiniferatoxin], the “COX-2 activity induced by TPA” value is given as “decreased”.

The values are drawn from patent US8653032B2, “Pharmaceutical composition for preventing / treating TRPV1 activity-related and inflammation-related diseases or conditions containing maillard peptide separated from well-aged traditional soy sauce as active ingredient” (Korea Food Research Institute, priority 2009, dated 2014).
